Experiments:
[1] = 101.3 kPa, Liquid
[2] = xn = mol fraction of the nth substance listed; details: 101.3 kPa, Liquid, x2 = 0

CCCCCC [hexane]
[1]
Details | mass density [kg/m3] | viscosity [mPa·s]
293.15 K | 659.44 | 0.3163
298.15 K | 654.93 | 0.3036
303.15 K | 650.36 | 0.2914
308.15 K | 645.74 | 0.2797
313.15 K | 641.08 | 0.2685
318.15 K | 636.37 | 0.258
323.15 K | 631.61 | 0.2482
328.15 K | 626.81 | 0.2391
333.15 K | 621.95 | 0.2308

CCCCCCCl [1-chlorohexane]
[1]
Details | mass density [kg/m3] | viscosity [mPa·s]
293.15 K | 878.52 | 0.7704
298.15 K | 873.75 | 0.7173
303.15 K | 868.98 | 0.6702
308.15 K | 864.21 | 0.6283
313.15 K | 859.44 | 0.591
318.15 K | 854.67 | 0.558
323.15 K | 849.9 | 0.5285
328.15 K | 845.12 | 0.5019
333.15 K | 840.35 | 0.4778

CCCCCC [hexane] + CCCCCCCl
[2]
Details | mass density [kg/m3] | viscosity [mPa·s]
293.15 K | 659.44 | 0.3163
298.15 K | 654.93 | 0.3036
303.15 K | 650.36 | 0.2914
308.15 K | 645.74 | 0.2797
313.15 K | 641.08 | 0.2685
318.15 K | 636.37 | 0.258
323.15 K | 631.61 | 0.2482
328.15 K | 626.81 | 0.2391
333.15 K | 621.95 | 0.2308

Source: the NIST ThermoML archive (doi:10.1021/je034002l)
